Source: ChEMBL document CHEMBL4340516, “Synthesis and antitumor activity of novel steroidal imidazolium salt derivatives” (Eur J Med Chem, 2019)
pIC50: −log10 of the molar value. Each block holds one compound with its values, some of them ahead of it.

How the values were obtained:
A549 = experiment: Antiproliferative activity against human A549 cells assessed as reduction in cell viability incubated for 48 hrs by MTS assay; assay type: functional, cell-based; details: A549, 48 h
SMMC-7721 [1] = experiment: Antiproliferative activity against human SMMC7721 cells assessed as reduction in cell viability incubated for 48 hrs by MTS assay; assay type: functional, cell-based; details: SMMC-7721, 48 h
HL-60 = experiment: Antiproliferative activity against human HL60 cells assessed as reduction in cell viability incubated for 48 hrs by MTS assay; assay type: functional, cell-based; details: HL-60, 48 h
SW480 = experiment: Antiproliferative activity against human SW480 cells assessed as reduction in cell viability incubated for 48 hrs by MTS assay; assay type: functional, cell-based; details: SW480, 48 h
MCF7 = experiment: Antiproliferative activity against human MCF7 cells assessed as reduction in cell viability incubated for 48 hrs by MTS assay; assay type: functional, cell-based; details: MCF7, 48 h
SMMC-7721 [2] = experiment: Induction of apoptosis in human SMMC7721 cells assessed as early apoptotic cells at 2 uM after 48 hrs by annexin V-FITC/propidium iodide staining based flow cytometry (reference value: 1.68%); assay type: functional
SMMC-7721 [3] = experiment: Cell cycle arrest in human SMMC7721 cells assessed as accumulation of cells at G0/G1 phase at 1 uM after 24 hrs by propidium iodide staining-based flow cytometric analysis (reference value: 62.58 +/- 0.35%); assay type: functional
SMMC-7721 [4] = experiment: Induction of apoptosis in human SMMC7721 cells assessed as viable cells at 1 uM after 48 hrs by annexin V-FITC/propidium iodide staining based flow cytometry (reference value: 94.7%); assay type: functional; details: SMMC-7721, 48 h, read-out: Activity
SMMC-7721 [5] = experiment: Cell cycle arrest in human SMMC7721 cells assessed as accumulation of cells at G2/M phase at 4 uM after 24 hrs by propidium iodide staining-based flow cytometric analysis (reference value: 8.72 +/- 0.42%); assay type: functional
SMMC-7721 [6] = experiment: Cell cycle arrest in human SMMC7721 cells assessed as accumulation of cells at G2/M phase at 1 uM after 24 hrs by propidium iodide staining-based flow cytometric analysis (reference value: 8.72 +/- 0.42%); assay type: functional
SMMC-7721 [7] = experiment: Cell cycle arrest in human SMMC7721 cells assessed as accumulation of cells at G0/G1 phase after 24 hrs by propidium iodide staining-based flow cytometric analysis; assay type: functional
SMMC-7721 [8] = experiment: Cell cycle arrest in human SMMC7721 cells assessed as accumulation of cells at G2/M phase at 0.5 uM after 24 hrs by propidium iodide staining-based flow cytometric analysis (reference value: 8.72 +/- 0.42%); assay type: functional
SMMC-7721 [9] = experiment: Induction of apoptosis in human SMMC7721 cells assessed as viable cells at 2 uM after 48 hrs by annexin V-FITC/propidium iodide staining based flow cytometry (reference value: 94.7%); assay type: functional; details: SMMC-7721, 48 h, read-out: Activity
SMMC-7721 [10] = experiment: Induction of apoptosis in human SMMC7721 cells assessed as necrotic cells at 1 uM after 48 hrs by annexin V-FITC/propidium iodide staining based flow cytometry (reference value: 0.6%); assay type: functional
SMMC-7721 [11] = experiment: Cell cycle arrest in human SMMC7721 cells assessed as accumulation of cells at G0/G1 phase at 0.5 uM after 24 hrs by propidium iodide staining-based flow cytometric analysis (reference value: 62.58 +/- 0.35%); assay type: functional
SMMC-7721 [12] = experiment: Cell cycle arrest in human SMMC7721 cells assessed as accumulation of cells at G0/G1 phase at 4 uM after 24 hrs by propidium iodide staining-based flow cytometric analysis (reference value: 62.58 +/- 0.35%); assay type: functional
SMMC-7721 [13] = experiment: Cell cycle arrest in human SMMC7721 cells assessed as accumulation of cells at S phase at 0.5 uM after 24 hrs by propidium iodide staining-based flow cytometric analysis (reference value: 24.5 +/- 0.05%); assay type: functional
SMMC-7721 [14] = experiment: Induction of apoptosis in human SMMC7721 cells assessed as late apoptotic cells at 2 uM after 48 hrs by annexin V-FITC/propidium iodide staining based flow cytometry (reference value: 3.05%); assay type: functional
SMMC-7721 [15] = experiment: Induction of apoptosis in human SMMC7721 cells assessed as late apoptotic cells at 1 uM after 48 hrs by annexin V-FITC/propidium iodide staining based flow cytometry (reference value: 3.05%); assay type: functional
SMMC-7721 [16] = experiment: Cell cycle arrest in human SMMC7721 cells assessed as accumulation of cells at sub-G1 phase at 1 uM after 24 hrs by propidium iodide staining-based flow cytometric analysis (reference value: 2.33 +/- 0.17%); assay type: functional
SMMC-7721 [17] = experiment: Cell cycle arrest in human SMMC7721 cells assessed as accumulation of cells at S phase at 1 uM after 24 hrs by propidium iodide staining-based flow cytometric analysis (reference value: 24.5 +/- 0.05%); assay type: functional
SMMC-7721 [18] = experiment: Induction of apoptosis in human SMMC7721 cells assessed as necrotic cells at 2 uM after 48 hrs by annexin V-FITC/propidium iodide staining based flow cytometry (reference value: 0.6%); assay type: functional
SMMC-7721 [19] = experiment: Induction of apoptosis in human SMMC7721 cells assessed as early apoptotic cells at 1 uM after 48 hrs by annexin V-FITC/propidium iodide staining based flow cytometry (reference value: 1.68%); assay type: functional
SMMC-7721 [20] = experiment: Cell cycle arrest in human SMMC7721 cells assessed as accumulation of cells at sub-G1 phase at 0.5 uM after 24 hrs by propidium iodide staining-based flow cytometric analysis (reference value: 2.33 +/- 0.17%); assay type: functional
SMMC-7721 [21] = experiment: Cell cycle arrest in human SMMC7721 cells assessed as accumulation of cells at S phase at 4 uM after 24 hrs by propidium iodide staining-based flow cytometric analysis (reference value: 24.5 +/- 0.05%); assay type: functional
SMMC-7721 [22] = experiment: Cell cycle arrest in human SMMC7721 cells assessed as accumulation of cells at G0/G1 phase at 2 uM after 24 hrs by propidium iodide staining-based flow cytometric analysis (reference value: 62.58 +/- 0.35%); assay type: functional

Compound: CC(C)CCC[C@@H](C)[C@H]1CC[C@H]2[C@@H]3CC=C4C[C@H](n5cnc6ccccc65)CC[C@]4(C)[C@H]3CC[C@]12C
- pIC50 (A549): < 4.70
- pIC50 (SMMC-7721 [1]): < 4.70
- pIC50 (HL-60): < 4.70
- pIC50 (SW480): < 4.70
- pIC50 (MCF7): < 4.70

Compound: C[C@@H]1CC[C@@]2(OC1)O[C@H]1C[C@H]3[C@@H]4CC=C5C[C@H](n6cnc7ccccc76)CC[C@]5(C)[C@H]4CC[C@]3(C)[C@H]1[C@@H]2C
- pIC50 (A549): < 4.70
- pIC50 (SMMC-7721 [1]): < 4.70
- pIC50 (HL-60): < 4.70
- pIC50 (SW480): < 4.70
- pIC50 (MCF7): < 4.70

Compound: CC(=O)O[C@H]1CC[C@@]2(C)C(=CC[C@H]3[C@@H]4CC[C@H](n5cc[n+](CC(=O)c6ccc7ccccc7c6)c5)[C@@]4(C)CC[C@@H]32)C1
- pIC50 (A549): 5.36
- pIC50 (SMMC-7721 [1]): 5.76
- pIC50 (HL-60): 5.90
- pIC50 (SW480): 5.35
- pIC50 (MCF7): 5.68

Compound: c1ccc2[nH]cnc2c1 [BENZIMIDAZOLE]
- pIC50 (A549): < 4.70
- pIC50 (SMMC-7721 [1]): < 4.70
- pIC50 (HL-60): < 4.70
- pIC50 (SW480): < 4.70
- pIC50 (MCF7): < 4.70

Compound: Cc1cc2c(cc1C)[n+](Cc1ccccc1Br)cn2[C@@H]1CC[C@@]2(C)C(=CC[C@H]3[C@@H]4C[C@@H]5O[C@]6(CC[C@@H](C)CO6)[C@@H](C)[C@@H]5[C@@]4(C)CC[C@@H]32)C1.[Br-]
- Activity (SMMC-7721 [2]): 0.69%
- Activity (SMMC-7721 [3]): 78.1%
- viability at 1 µM (SMMC-7721 [4]): 79.6%
- Activity (SMMC-7721 [5]): 4.67%
- Activity (SMMC-7721 [6]): 4.67%
- Activity (SMMC-7721 [7]): Dose-dependent effect
- Activity (SMMC-7721 [8]): 3.49%
- pIC50 (A549): 6.17
- viability at 2 µM (SMMC-7721 [9]): 27.8%
- Activity (SMMC-7721 [10]): 1.27%
- Activity (SMMC-7721 [11]): 73.61%
- Activity (SMMC-7721 [12]): 78.1%
- Activity (SMMC-7721 [13]): 19.23%
- Activity (SMMC-7721 [14]): 64.9%
- Activity (SMMC-7721 [15]): 18.7%
- Activity (SMMC-7721 [16]): 2.43%
- pIC50 (SMMC-7721 [1]): 6.36
- pIC50 (HL-60): 6.31
- Activity (SMMC-7721 [17]): 14.22%
- Activity (SMMC-7721 [18]): 6.62%
- Activity (SMMC-7721 [19]): 0.373%
- pIC50 (SW480): 6.10
- Activity (SMMC-7721 [20]): 2.4%
- Activity (SMMC-7721 [21]): 14.22%
- pIC50 (MCF7): 6.14
- Activity (SMMC-7721 [22]): 73.61%

Next, values leading:

- pIC50 (A549): 5.09
- pIC50 (SMMC-7721 [1]): 5.84
- pIC50 (HL-60): 5.63
- pIC50 (SW480): 5.11
- pIC50 (MCF7): 5.12
Compound: CC(C)CCC[C@@H](C)[C@H]1CC[C@H]2[C@@H]3CC=C4C[C@@H](n5cc[n+](Cc6ccccc6Br)c5)CC[C@]4(C)[C@H]3CC[C@]12C

- pIC50 (A549): 5.59
- pIC50 (SMMC-7721 [1]): 5.74
- pIC50 (HL-60): 5.92
- pIC50 (SW480): 5.59
- pIC50 (MCF7): 5.60
Compound: C[C@@H]1CC[C@@]2(OC1)O[C@H]1C[C@H]3[C@@H]4CC=C5C[C@H](n6c[n+](CC(=O)c7ccccc7)c7ccccc76)CC[C@]5(C)[C@H]4CC[C@]3(C)[C@H]1[C@@H]2C

- pIC50 (A549): < 4.70
- pIC50 (SMMC-7721 [1]): < 4.70
- pIC50 (HL-60): < 4.70
- pIC50 (SW480): < 4.70
- pIC50 (MCF7): < 4.70
Compound: C[C@@H]1CC[C@@]2(OC1)O[C@H]1C[C@H]3[C@@H]4CC=C5C[C@H](n6ccnc6)CC[C@]5(C)[C@H]4CC[C@]3(C)[C@H]1[C@@H]2C

- pIC50 (A549): 5.13
- pIC50 (SMMC-7721 [1]): 6.03
- pIC50 (HL-60): 5.80
- pIC50 (SW480): 5.08
- pIC50 (MCF7): 5.22
Compound: CC(C)CCC[C@@H](C)[C@H]1CC[C@H]2[C@@H]3CC=C4C[C@H](n5cc[n+](Cc6ccccc6Br)c5)CC[C@]4(C)[C@H]3CC[C@]12C
